# Patent publication US8871796B2, “Diaryl ether derivatives as notch sparing gamma secretase inhibitors” (Merck Sharp & Dohme Corp., priority 2009, dated 2014)
# Where two headings read alike, the source gives them in different places.
# Test: APP processing: AlphaLisa assay of secreted Aβ40 and Aβ42 from SP4CT cells
# Assay type: cell-based
# Settings: Homo sapiens, SH-SY5Y cells expressing amyloid β protein (SP4CT cells)
# Protocol: APP Processing (Assay Quantitates Secreted Aβ Analytes from Cell Lines):
# The effect of compounds on the abundance of Aβ40 and Aβ42 peptides generated from SH-SY5Y cells expressing amyloid β protein (SP4CT cells) are determined by an AlphaLisa™ assay. Analogous to an ELISA assay, generation of […] AlphaLisa™ assay requires “donor” and “acceptor” beads to be brought in close proximity by specific antibody recognition of either Aβ40 or Aβ42 peptides. The assay is accomplished by removing media from compound-treated SP4CT cells to two different microplates, followed by the addition of donor beads conjugated with streptavidin binding a biotinylated anti-amyloid β monocolonal antibody (clone 4G8). Acceptor beads directly conjugated with anti-Aβ40 monoclonal antibody (G210) are added to one microplate and anti-Aβ42 monoclonal antibody (12F4) acceptor beads were added to the other. Abundance of Aβ40 and Aβ42 is directly proportional to the luminescent signal generated following excitation of donor beads by laser light.
# [1] = read-out: IC50, inhibition of production of Aβ40 peptide
# [2] = read-out: IC50, inhibition of production of Aβ42 peptide
SMILES,IC50 [1],IC50 [2]
"CCn1nc(Oc2ccc(C(F)(F)F)cc2)cc1-c1cccc(C(C)(C)NS(=O)(=O)NC)c1 [Example 24, N-[1-(3-{1-ethyl-3-[4-(trifluoromethyl)phenoxy]-1H-pyrazol-5-yl}phenyl)-1-methylethyl]-N′-methylsulfamide]",< 200 nM,< 200 nM
"CCn1nc(Oc2ccc(C(F)(F)F)cc2)cc1-c1cccc(C(C)(C)NS(=O)(=O)N(C)C)c1 [Example 25, N′-[1-(3-{1-ethyl-3-[4-(trifluoromethyl)phenoxy]-1H-pyrazol-5-yl}phenyl)-1-methylethyl]-N,N-dimethylsulfamide]",< 200 nM,< 200 nM
"CCn1nc(Oc2ccc(C(F)(F)F)cc2)cc1-c1cccc(C(C)(C)NS(=O)(=O)N2CCCC2)c1 [Example 26, N-[1-(3-{1-ethyl-3-[4-(trifluoromethyl)phenoxy]-1H-pyrazol-5-yl}phenyl)-1-methylethyl]pyrrolidine-1-sulfonamide]",< 200 nM,< 200 nM
"CCn1nc(Oc2ccc(C(F)(F)F)cc2)cc1-c1cccc(C(C)(C)NS(=O)(=O)N2CCCCC2)c1 [Example 27, N-[1-(3-{1-ethyl-3-[4-(trifluoromethyl)phenoxy]-1H-pyrazol-5-yl}phenyl)-1 methylethyl]piperidine-1-sulfonamide]",< 200 nM,< 200 nM
"CCn1nc(-c2cccc(C3(NS(=O)(=O)CC(F)(F)F)CC3)c2)cc1Oc1ccc(C(F)(F)F)cc1 [Example 28, N-[1-(3-{1-ethyl-5-[4-(trifluoromethyl)phenoxy]-1H-pyrazol-3-yl}phenyl)cyclopropyl]-2,2,2-trifluoroethanesulfonamide]",< 200 nM,< 200 nM
"CCn1nc(Oc2ccc(C(F)(F)F)cc2)cc1-c1cccc(C2(NS(=O)(=O)NC3CCCC3)CC2)c1 [Example 29, N-cyclopentyl-N′-[1-(3-{1-ethyl-3-[4-(trifluoromethyl)phenoxy]-1H-pyrazol-5-yl}phenyl)cyclopropyl] sulfamide]",< 200 nM,< 200 nM
"CCn1nc(Oc2ccc(C(F)(F)F)cc2)cc1-c1cccc(C2(NS(=O)(=O)NCC(C)C)CC2)c1 [Example 30, N-[1-(3-{1-ethyl-3-[4-(trifluoromethyl)phenoxy]-1H-pyrazo1-5-yl}phenyl)cyclopropyl]-N′-isobutylsulfamide]",< 200 nM,< 200 nM
"CCn1nc(Oc2ccc(C(F)(F)F)cc2)cc1-c1cccc(C2(NS(=O)(=O)CC(F)(F)F)CC2)c1 [Example 31, N-[1-(3-{1-ethyl-3-[4-(trifluoromethyl)phenoxy]-1H-pyrazol-5-yl}phenyl)cyclopropyl]-2,2,2-trifluoroethanesulfonamide]",< 200 nM,< 200 nM
"CCn1nc(Oc2ccc(C(F)(F)F)cn2)cc1-c1cccc(C2(NS(=O)(=O)CC(F)(F)F)CC2)c1 [Example 32, N-{1-[3-(1-ethyl-3-{[5-(trifluoromethyl)pyridin-2-yl]oxy}-1H-pyrazol-5-yl)phenyl]cyclopropyl}-2,2,2-trifluoroethanesulfonamide]",< 200 nM,< 200 nM
"CCCNS(=O)(=O)NC1(c2cccc(-c3cc(Oc4ccc(C(F)(F)F)cc4)nn3CC)c2)CC1 [Example 33, N-[1-(3-{1-ethyl-3-[4-(trifluoromethyl)phenoxy]-1H-pyrazol-5-yl}phenyl)cyclopropyl]-N′-propylsulfamide]",< 200 nM,< 200 nM
"CCn1nc(Oc2ccc(C(F)(F)F)cc2)cc1-c1cccc(C2(NS(=O)(=O)NC)CC2)c1 [Example 34, N-[1-(3-{1-ethyl-3-[4-(trifluoromethyl)phenoxy]-1H-pyrazol-5-yl}phenyl)cyclopropyl]-N′-methylsulfamide]",< 200 nM,< 200 nM
"CCn1nc(-c2cccc(C3(NS(=O)(=O)NC4CCCC4)CC3)c2)cc1Oc1ccc(C(F)(F)F)cc1 [Example 35, N-cyclopentyl-N′-[1-(3-{1-ethyl-5-[4-(trifluoromethyl)phenoxy]-1H-pyrazol-3-yl}phenyl)cyclopropyl] sulfamide]",< 200 nM,< 200 nM
"CCn1nc(-c2cccc(C3(NS(=O)(=O)NCC(F)(F)F)CC3)c2)cc1Oc1ccc(C(F)(F)F)cc1 [Example 36, N-[1-(3-{1-ethyl-5-[4-(trifluoromethyl)phenoxy]-1H-pyrazol-3-yl}phenyl)cyclopropyl]-N′-(2,2,2-trifluoroethyl)sulfamide]",< 200 nM,< 200 nM
"CCn1nc(-c2cccc(C3(NS(=O)(=O)CC4CCC4)CC3)c2)cc1Oc1ccc(C(F)(F)F)cc1 [Example 37, 1-cyclobutyl-N-[1-(3-{1-ethyl-5-[4-(trifluoromethyl)phenoxy]-1H-pyrazol-3-yl}phenyl)cyclopropyl] methanesulfonamide]",< 200 nM,< 200 nM
"CCn1nc(-c2cccc(C3(NS(=O)(=O)CC)CC3)c2)cc1Oc1ccc(C(F)(F)F)cc1 [Example 38, N-[1-(3-{1-ethyl-5-[4-(trifluoromethyl)phenoxy]-1H-pyrazol-3-yl}phenyl)cyclopropyl] ethanesulfonamide]",< 200 nM,< 200 nM
"CCn1nc(-c2cccc(C3(NS(=O)(=O)CC(F)(F)F)CC3)c2)cc1Oc1ncc(C(F)(F)F)cc1Cl [Example 39, N-{1-[3-(5-{[3-chloro-5-(trifluoromethyl)pyridin-2-yl]oxy}-1-ethyl-1H-pyrazol-3-yl)phenyl]cyclopropyl}-2,2,2-trifluoroethanesulfonamide]",< 200 nM,< 200 nM
"CCn1nc(-c2cccc(C3(NS(=O)(=O)CC(F)(F)F)CC3)c2)cc1Oc1ccc(C(F)(F)F)nc1 [Example 40, N-{1-[3-(1-ethyl-5-{[6-(trifluoromethyl)pyridin-3-yl]oxy}-1H-pyrazol-3-yl)phenyl]cyclopropyl}-2,2,2-trifluoroethanesulfonamide]",< 200 nM,< 200 nM
"CCn1nc(-c2cccc(C3(NS(=O)(=O)NCC(F)(F)F)CC3)c2)cc1Oc1ccc(C(F)(F)F)cn1 [Example 41, N-{1-[3-(1-ethyl-5-{[5-(trifluoromethyl)pyridin-2-yl]oxy}-1H-pyrazol-3-yl)phenyl]cyclopropyl}-N′-(2,2,2-trifluoroethyl)sulfamide]",< 200 nM,< 200 nM
"CCn1nc(-c2cccc(C3(NS(=O)(=O)CC4CCC4)CC3)c2)cc1Oc1ccc(C(F)(F)F)cn1 [Example 42, 1-cyclobutyl-N-{1-[3-(1-ethyl-5-{[5-(trifluoromethyl)pyridin-2-yl]oxy}-1H-pyrazol-3-yl)phenyl]cyclopropyl} methanesulfonamide]",< 200 nM,< 200 nM
"CCn1nc(-c2cccc(C3(NS(=O)(=O)NC4CCC4)CC3)c2)cc1Oc1ccc(C(F)(F)F)cn1 [Example 43, N-cyclobutyl-N′-{1-[3-(1-ethyl-5-{[5-(trifluoromethyl)pyridin-2-yl]oxy}-1H-pyrazol-3-yl)phenyl]cyclopropyl} sulfamide]",< 200 nM,< 200 nM
"CCn1nc(-c2cccc(C3(NS(=O)(=O)CC(F)(F)F)CC3)c2)cc1Oc1ccc(C(F)(F)F)cn1 [Example 44, N-{1-[3-(1-ethyl-5-{[5-(trifluoromethyl)pyridin-2-yl]oxy}-1H-pyrazol-3-yl)phenyl]cyclopropyl}-2,2,2-trifluoroethanesulfonamide]",< 200 nM,< 200 nM
"CCn1nc(-c2cccc(C3(NS(=O)(=O)NC)CC3)c2)cc1Oc1ccc(C(F)(F)F)cn1 [Example 45, N-{1-[3-(1-ethyl-5-{[5-(trifluoromethyl)pyridin-2-yl]oxy}-1H-pyrazol-3-yl)phenyl]cyclopropyl}-N′-methylsulfamide]",< 200 nM,< 200 nM
"CCCNS(=O)(=O)NC1(c2cccc(-c3cc(Oc4ccc(C(F)(F)F)cc4)n(CC)n3)c2)CC1 [Example 46, N-[1-(3-{1-ethyl-5-[4-(trifluoromethyl)phenoxy]-1H-pyrazol-3-yl}phenyl)cyclopropyl]-N′-propylsulfamide]",< 200 nM,< 200 nM
"CCn1nc(-c2cccc(C3(NS(=O)(=O)NCC(C)C)CC3)c2)cc1Oc1ccc(C(F)(F)F)cc1 [Example 47, N-[1-(3-{1-ethyl-5-[4-(trifluoromethyl)phenoxy]-1H-pyrazol-3-yl}phenyl)cyclopropyl]-N′-isobutylsulfamide]",< 200 nM,< 200 nM
"CCn1nc(-c2cccc(C3(NS(=O)(=O)NC)CC3)c2)cc1Oc1ccc(C(F)(F)F)cc1 [Example 48, N-[1-(3-{1-ethyl-5-[4-(trifluoromethyl)phenoxy]-1H-pyrazol-3-yl}phenyl)cyclopropyl]-N′-methylsulfamide]",< 200 nM,< 200 nM
"CCn1nc(-c2cccc(C3(NS(=O)(=O)CC(F)(F)F)CC3)c2)cc1Oc1ncc(F)cn1 [Example 49, N-[1-(3-{1-ethyl-5-[(5-fluoropyrimidin-2-yl)oxy]-1H-pyrazol-3-yl}phenyl)cyclopropyl]-2,2,2-trifluoroethanesulfonamide]",< 200 nM,< 200 nM
"CCn1nc(-c2cccc(C3(NS(=O)(=O)CC(F)(F)F)CC3)c2)cc1Oc1ccncc1 [Example 50, N-(1-{3-[1-ethyl-5-(pyridin-4-yloxy)-1H-pyrazol-3-yl]phenyl}cyclopropyl)-2,2,2-trifluoroethanesulfonamide]",< 200 nM,< 200 nM
"CCn1nc(-c2cccc(C3(NS(=O)(=O)CC(F)(F)F)CC3)n2)cc1Oc1ccc(C(F)(F)F)cc1 [Example 51, N-[1-(6-{1-ethyl-5-[4-(trifluoromethyl)phenoxy]-1H-pyrazol-3-yl}pyridin-2-yl)cyclopropyl]-2,2,2-trifluoroethanesulfonamide]",< 200 nM,< 200 nM
